From patent publication US11168086B2, “Methods of synthesizing pyrazine compounds” (Hoffmann-La Roche Inc., priority 2015, dated 2021)

Tested on: HBV
Test: HBV inhibition assay: anti-HBV activity in vitro in HepG2.2.15 cells (extracellular HBV DNA by qPCR)
Format: cell-based
Settings: Hepatitis B virus, 120 h, five days after compound treatment, extracellular HBV DNA in culture supernatant by qPCR, concentration at which HBV replication is inhibited by 50%
Outline: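 HepG2.2.15 cells (stably carrying HBV genome) treated with half-log serially diluted compounds at 0.5% DMSO final for five days. Extracellular HBV DNA in supernatant quantified by qPCR after Proteinase K digestion; EC50 is concentration giving 50% inhibition of replication.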

Structure (SMILES)	EC50 [µM]
C[C@H]1Cn2ncc(N3CC(c4ccncc4)CC3=O)c2CN1C(=O)Nc1cc(F)c(F)c(F)c1 (stereo partly drawn) [Example 354, (6S)-6-methyl-3-[2-oxo-4-(4-pyridyl)pyrrolidin-1-yl]-N-(3,4,5-trifluorophenyl)-6,7-dihydro-4H-pyrazolo[1,5-a]pyrazine-5-carboxamide]	0.013
C[C@H]1Cn2ncc(N3CCCC3=O)c2CN1C(=O)Nc1ccc(F)c(Cl)c1 [Example 355, (6S)—N-(3-chloro-4-fluoro-phenyl)-6-methyl-3-(2-oxopyrrolidin-1-yl)-6,7-dihydro-4H-pyrazolo[1,5-a]pyrazine-5-carboxamide]	0.036
C[C@H]1Cn2ncc(N3CCCC3=O)c2CN1C(=O)Nc1cc(F)c(F)c(F)c1 [Example 356, (6S)-6-methyl-3-(2-oxopyrrolidin-1-yl)-N-(3,4,5-trifluorophenyl)-6,7-dihydro-4H-pyrazolo[1,5-a]pyrazine-5-carboxamide]	0.05
CC1CCC(=O)N(c2cnn3c2CN(C(=O)Nc2cc(F)c(F)c(F)c2)[C@@H](C)C3)C1 (stereo partly drawn) [Example 358, (6S)-6-methyl-3-(5-methyl-2-oxo-1-piperidyl)-N-(3,4,5-trifluorophenyl)-6,7-dihydro-4H-pyrazolo[1,5-a]pyrazine-5-carboxamide]	0.043
C[C@H]1Cn2ncc(N3CC(C#N)(CO)CC3=O)c2CN1C(=O)Nc1cc(F)c(F)c(F)c1 (stereo partly drawn) [Example 360, (6S)-3-[4-cyano-4-(hydroxymethyl)-2-oxo-pyrrolidin-1-yl]-6-methyl-N-(3,4,5-trifluorophenyl)-6,7-dihydro-4H-pyrazolo[1,5-a]pyrazine-5-carboxamide]	0.043
C[C@H]1Cn2ncc(N3CC(C)(C#N)CC3=O)c2CN1C(=O)Nc1cc(F)c(F)c(C(F)F)c1 (stereo partly drawn) [Example 361, (6S)-3-(4-cyano-4-methyl-2-oxo-pyrrolidin-1-yl)-N-[3-(difluoromethyl)-4,5-difluoro-phenyl]-6-methyl-6,7-dihydro-4H-pyrazolo[1,5-a]pyrazine-5-carboxamide]	0.011
C[C@H]1Cn2ncc(N3CC(C)(CO)CC3=O)c2CN1C(=O)Nc1cc(F)c(F)c(F)c1 (stereo partly drawn) [Example 362, (6S)-3-[4-(hydroxymethyl)-4-methyl-2-oxo-pyrrolidin-1-yl]-6-methyl-N-(3,4,5-trifluorophenyl)-6,7-dihydro-4H-pyrazolo[1,5-a]pyrazine-5-carboxamide]	0.032
C[C@H]1Cn2ncc(N3CC(N(C)c4ncccn4)CC3=O)c2CN1C(=O)Nc1cc(F)c(F)c(F)c1 (stereo partly drawn) [Example 363, (6S)-6-methyl-3-[4-[methyl(pyrimidin-2-yl)amino]-2-oxo-pyrrolidin-1-yl]-N-(3,4,5-trifluorophenyl)-6,7-dihydro-4H-pyrazolo[1,5-a]pyrazine-5-carboxamide]	0.009
C[C@H]1Cn2ncc(N3CCOCC3=O)c2CN1C(=O)Nc1ccc(F)c(Cl)c1 [Example 364, (6S)—N-(3-chloro-4-fluoro-phenyl)-6-methyl-3-(3-oxomorpholin-4-yl)-6,7-dihydro-4H-pyrazolo[1,5-a]pyrazine-5-carboxamide]	0.028
C[C@H]1Cn2ncc(N3CCNC3=O)c2CN1C(=O)Nc1cc(F)c(F)c(F)c1 [Example 368, (6S)-6-methyl-3-(2-oxoimidazolidin-1-yl)-N-(3,4,5-trifluorophenyl)-6,7-dihydro-4H-pyrazolo[1,5-a]pyrazine-5-carboxamide]	0.047
C[C@H]1Cn2ncc(N3CC(C)(C)OCC3=O)c2CN1C(=O)Nc1ccc(F)c(Cl)c1 [Example 371, (6S)—N-(3-chloro-4-fluoro-phenyl)-3-(2,2-dimethyl-5-oxo-morpholin-4-yl)-6-methyl-6,7-dihydro-4H-pyrazolo[1,5-a]pyrazine-5-carboxamide]	0.02
C[C@H]1Cn2ncc(N3C(=O)COC[C@@H]3C)c2CN1C(=O)Nc1cc(F)c(F)c(F)c1 [Example 372, (6S)-6-methyl-3-[(3S)-3-methyl-5-oxo-morpholin-4-yl]-N-(3,4,5-trifluorophenyl)-6,7-dihydro-4H-pyrazolo[1,5-a]pyrazine-5-carboxamide]	0.05
C[C@H]1Cn2ncc(N3CCNC3=O)c2CN1C(=O)Nc1cc(F)c(F)c(C(F)F)c1 [Example 373, (6S)—N-[3-(difluoromethyl)-4,5-difluoro-phenyl]-6-methyl-3-(2-oxoimidazolidin-1-yl)-6,7-dihydro-4H-pyrazolo[1,5-a]pyrazine-5-carboxamide]	0.022
C[C@H]1Cn2ncc(N3C[C@H](O)CC3=O)c2CN1C(=O)Nc1cc(F)c(F)c(F)c1 [Example 376, (6S)-3-[(4R)-4-hydroxy-2-oxo-pyrrolidin-1-yl]-6-methyl-N-(3,4,5-trifluorophenyl)-6,7-dihydro-4H-pyrazolo[1,5-a]pyrazine-5-carboxamide]	0.088
C[C@H]1Cn2ncc(N3C[C@@H](O)CC3=O)c2CN1C(=O)Nc1cc(F)c(F)c(F)c1 [Example 377, (6S)-3-[(4S)-4-hydroxy-2-oxo-pyrrolidin-1-yl]-6-methyl-N-(3,4,5-trifluorophenyl)-6,7-dihydro-4H-pyrazolo[1,5-a]pyrazine-5-carboxamide]	0.081
CO[C@H]1CC(=O)N(c2cnn3c2CN(C(=O)Nc2cc(F)c(F)c(F)c2)[C@@H](C)C3)C1 [Example 378, (6S)-3-[(4S)-4-methoxy-2-oxo-pyrrolidin-1-yl]-6-methyl-N-(3,4,5-trifluorophenyl)-6,7-dihydro-4H-pyrazolo[1,5-a]pyrazine-5-carboxamide]	0.028
CO[C@@H]1CC(=O)N(c2cnn3c2CN(C(=O)Nc2cc(F)c(F)c(F)c2)[C@@H](C)C3)C1 [Example 379, (6S)-3-[(4R)-4-methoxy-2-oxo-pyrrolidin-1-yl]-6-methyl-N-(3,4,5-trifluorophenyl)-6,7-dihydro-4H-pyrazolo[1,5-a]pyrazine-5-carboxamide]	0.038
C[C@H]1Cn2ncc(N3C[C@@H](Oc4ncccn4)CC3=O)c2CN1C(=O)Nc1cc(F)c(F)c(F)c1 [Example 381, (6S)-6-methyl-3-[(4S)-2-oxo-4-pyrimidin-2-yloxy-pyrrolidin-1-yl]-N-(3,4,5-trifluorophenyl)-6,7-dihydro-4H-pyrazolo[1,5-a]pyrazine-5-carboxamide]	0.005
C[C@H]1Cn2ncc(N3C[C@@H](Oc4ncc(F)cn4)CC3=O)c2CN1C(=O)Nc1cc(F)c(F)c(F)c1 [Example 382, (6S)-3-[(4S)-4-(5-fluoropyrimidin-2-yl)oxy-2-oxo-pyrrolidin-1-yl]-6-methyl-N-(3,4,5-trifluorophenyl)-6,7-dihydro-4H-pyrazolo[1,5-a]pyrazine-5-carboxamide]	0.016
C[C@H]1Cn2ncc(N3CC(C(=O)N4CCOCC4)CC3=O)c2CN1C(=O)Nc1cc(F)c(F)c(F)c1 (stereo partly drawn) [Example 386, (6S)-6-methyl-3-[4-(morpholine-4-carbonyl)-2-oxo-pyrrolidin-1-yl]-N-(3,4,5-trifluorophenyl)-6,7-dihydro-4H-pyrazolo[1,5-a]pyrazine-5-carboxamide]	0.088
C[C@H]1Cn2ncc(N3CC(C(=O)N(C)C)CC3=O)c2CN1C(=O)Nc1cc(F)c(F)c(F)c1 (stereo partly drawn) [Example 390, (6S)-3-[4-(dimethylcarbamoyl)-2-oxo-pyrrolidin-1-yl]-6-methyl-N-(3,4,5-trifluorophenyl)-6,7-dihydro-4H-pyrazolo[1,5-a]pyrazine-5-carboxamide]	0.103
